Measurements reported in doi:10.1101/2022.07.20.500776v2 (biorxiv, 2022).

Legend:
Type in all cases: biochemical
[1] = target: T1, Vibrio alkaline phosphatase (VAP) (Vibrio sp. G15-21, UniProt Q93P54); assay: steady-state pNPP hydrolysis at […] nm, […] HEPES
T1 sequence (Q93P54 20-521): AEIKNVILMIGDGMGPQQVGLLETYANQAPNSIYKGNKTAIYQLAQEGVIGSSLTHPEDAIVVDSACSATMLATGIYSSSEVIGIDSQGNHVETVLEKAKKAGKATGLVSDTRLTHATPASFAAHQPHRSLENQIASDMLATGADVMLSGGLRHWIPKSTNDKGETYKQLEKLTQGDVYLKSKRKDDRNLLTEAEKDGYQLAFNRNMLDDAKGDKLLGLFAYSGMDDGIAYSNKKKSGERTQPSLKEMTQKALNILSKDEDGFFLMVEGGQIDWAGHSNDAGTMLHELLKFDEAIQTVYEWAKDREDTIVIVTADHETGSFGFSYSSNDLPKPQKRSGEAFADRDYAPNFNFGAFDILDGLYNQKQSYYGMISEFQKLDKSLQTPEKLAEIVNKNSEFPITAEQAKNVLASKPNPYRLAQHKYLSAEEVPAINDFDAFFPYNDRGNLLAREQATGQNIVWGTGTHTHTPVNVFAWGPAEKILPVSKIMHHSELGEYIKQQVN

[2] = target: T2, Vibrio alkaline phosphatase (VAP) (Vibrio sp. G15-21, UniProt Q93P54, K441L/Y442F); assay: steady-state pNPP hydrolysis at […] nm, Michaelis-Menten fit; conditions: pH 8.0, 100 mM Tris-HCl, 1 mM MgCl2, 10 °C, no added NaCl
T2 sequence (Q93P54 20-521 K441L/Y442F): T1 sequence (Q93P54 20-521)

[3] = target: T3, Vibrio alkaline phosphatase (VAP) (Vibrio sp. G15-21, UniProt Q93P54, Y241P); assay: as above; conditions: pH 8.0, 100 mM Tris-HCl, 1 mM MgCl2, 10 °C, no added NaCl
T3 sequence (Q93P54 20-521 Y241P): T1 sequence (Q93P54 20-521)

[4] = target: T4, Vibrio alkaline phosphatase (VAP) (Vibrio sp. G15-21, UniProt Q93P54, A240D); assay: as above; conditions: pH 8.0, 100 mM Tris-HCl, 1 mM MgCl2, 10 °C, no added NaCl
T4 sequence (Q93P54 20-521 A240D): T1 sequence (Q93P54 20-521)

[5] = target: T5, Vibrio alkaline phosphatase (VAP) (Vibrio sp. G15-21, UniProt Q93P54, K441E); assay: as above; conditions: pH 8.0, 100 mM Tris-HCl, 1 mM MgCl2, 10 °C, no added NaCl
T5 sequence (Q93P54 20-521 K441E): T1 sequence (Q93P54 20-521)

[6] = target: T6, Vibrio alkaline phosphatase (VAP) (Vibrio sp. G15-21, UniProt Q93P54, K441L); assay: as above; conditions: pH 8.0, 100 mM Tris-HCl, 1 mM MgCl2, 10 °C, no added NaCl
T6 sequence (Q93P54 20-521 K441L): T1 sequence (Q93P54 20-521)

Structure (SMILES)	Ki [1] [mM]	Km [2] [µM]	Km [3] [µM]	Km [4] [µM]	Km [5] [µM]	Km [6] [µM]
O=S(=O)(O)CCN1CCN(CCO)CC1 [HEPES]	21.3					
O=[N+]([O-])c1ccc(OP(=O)(O)O)cc1 [pNPP]		8.8 ± 2.4	4.9 ± 3.4	12.8 ± 3.8	7 ± 1.6	6.6 ± 3.1
